Tests used:
[1] = tested on: normal human astrocytes (PIN); assay: Cell viability assay, trypan blue, same protocol on telomerase-negative normal astrocytes; format: cell-based; conditions: same protocol as the tumor cells, over the treatment period
Protocol: The cytotoxic effect of 2-5A activator antisense complexes on tumor cells was determined using the trypan blue dye exclusion assay. Tumor cells were seeded at 10^4 cells/well (0.1 ml) in 96-well flat-bottomed plates and incubated overnight at 37° C. Then, oligonucleotides (5 micromolar) in water were added into cells every 12 hr. On successive days the cells were harvested and 25% of the total was examined microscopically to determine the percentage of viable cells, another 25% was replated to continue treatment and the remaining 50% were used for the TRAP assay.

U251-MG cells = assay: TUNEL assay on cultured cells treated with spA4-anti-hTR; format: cell-based, human; conditions: treated cells fixed and stained
U373 cells = assay: Viable cell count (trypan blue), daily oligonucleotide plus lipofectamine; format: cell-based, human
Protocol: Cells (10,000/well) were seeded on 96 well tissue culture dishes, and treated every 24 hours. A 10× concentrated mixture of oligonucleotides plus lipofectamine in water was prepared containing 5 micromolar oligonucleotide and 80 microgram per ml lipofectamine™ (Gibco/BRL) and incubated for 10 min at room temperature. Media was removed from the cells, 10 microliters of the oligonucleotide/lipofectamine mixture was added directly to the cultured cells followed by 90 microliters of media plus serum. The media was changed with oligonucleotide/lipofectamine treatments every 24 h. Cells were passaged when the control cells reached confluency, and viable cells were counted after staining with Trypan Blue (GibcoBRL). The numbers of cells treated only with lipofectamine were used as the control to calculate percentages of cell survival or viability.

U251-MG tumors = assay: In situ end-labeling (TUNEL) of DNA in subcutaneous xenografts; format: in vivo, nude mice; conditions: 5 nmol every day for 7 days
Text: FIG. 14. In situ end-labeling of DNA in subcutaneous xenografts of nude mice. After treatment with oligonucleotides (5 nmol, every day) for 7 days, the mice were sacrificed and the subcutaneous mass was removed, frozen, and sectioned on a cryostat. The tumor specimens from U251-MG cells were counterstained by hematoxylin and eosin following the TUNEL technique. Arrows show representatives of tumor cells positive for DNA fragmentation (×400). (above) spA4-anti-(M6)hTR, 7 Day; (below) spA4-anti-hTR, 7 Day.
To further determine whether treatment with oligonucleotides induced apoptosis, tumor cells and tissues were stained by the terminal deoxynucleotidyl transferase (TdT)-mediated DUTP nick end labeling (TUNEL) technique using Apo-Tag kit (peroxidase conjugated) (Oncor Inc., Gaithersburg, Md.). The staining of apoptotic cells was done on U373MG cells. Oligonucleotides with lipofectamine was added to the cells every day. The final concentrations were 0.5 micromolar and 8 microgram/ml for oligo and lipofectamine, respectively. […]
U251-MG and U373 MG tumor cells (1.0×10^6 cells in 0.1 ml serum free DMEM and 0.1 ml Matrigel) were injected subcutaneously into the right flank of 8-12 week-old female Balb/c nude mice (5 mice for each treatment group). Tumor growth was monitored using calipers every 2- or 3-days. Tumor volume (V) was calculated as (L×W^2)/2, where L=length (mm) and W=width (mm). […]

[2] = tested on: intracranial U373-MG tumors; assay: Survival of mice with intracranial malignant glioma, intracranial injection; format: in vivo, Balb/c nude mice
Protocol: To establish murine models with intracranial tumors of U373-MG human malignant glioma cells, Balb/c nude mice were used. Mice (8-12 week-old male) were anesthetized using ketamine (90 mg/kg) and xylazine (10 mg/kg) and placed in a stereotaxic frame (Lab Standard w/18 Degree Earbars, Stoelting, Wood Dale, Ill.). Inoculation of 5×10^5 tumor cells (10 microliter of a tumor cell suspension of 5×10^7/ml in serum free DMEM [0.5 ml] and matrigel [0.5 ml]) was performed transcranially using a 27-gauge stainless-steel needle and microliter syringe (Perfectum, Popper & Sons, Inc., New Hyde Park, N.Y.). The needle insertion was in the skull 1 mm anterior and.2 mm lateral to the bregma and the depth of insertion was 4 mm from the skull (the caudate nucleus). The needle was left in place for 3 min and then withdrawn slowly over another minute. Two weeks after inoculation of tumor cells, mice were deeply anesthetized with ketamine/xylazine, and sacrificed by transcardiac perfusion with 4% formaldehyde. The brains were then sliced to include the injection site, and 12 μm sections were made for histological analysis. To determine the effect of 2-5A-anti-hTR on intracranial tumors, spA4-anti-hTR (3 nmol/10 microliter distilled water/3 microliter Lipofectamine, three times) was injected intracranially into the tumors via the same coordinates three weeks after inoculation of tumor cells (on Days 21, 23, and 25).

U373-MG cells = assay: Combination with cisplatin in vitro, MTT assay; format: cell-based, human; conditions: treatment with spA4-anti-hTR
Protocol: FIG. 17. Effect of combining 2-5A-anti-hTR with cisplatin on malignant glioma U373-MG cells in vitro and in vivo. FIG. 17A Tumor cells were treated with 2-5A-anti-hTR (0.5 μM, every 24 hr) mixed with Lipofectamine (1.0 μl/25 μl DMEM) or cisplatin for three days, and their viability was determined by MTT assay. Values represent the means±S.D. FIG. 17B Tumors from U373-MG cells (1.0×10^6 cells in 0.05 ml serum free DMEM and 0.05 ml matrigel) were established subcutaneously in nude mice. After four or five weeks when the tumors were approximately 60-100 mm^3, spA4-anti-hTR (5 nmol/20 μl sterile distilled water) were administrated directly into the tumors daily for 7 days. Cisplatin (1.0 or 5.0 mg/kg/mice) was administered intraperitoneally on Days 1, 3 and 5. Five Mice were used in each treatment group. Tumor volume was then determined using calipers, and the mean sizes ±S.D. were calculated.
To determine if the anti-malignant glioma cell activity of chemotherapeutic agent, cisplatin, could be enhance with SpA4-anti-hTR, a combination therapy protocol was devised (FIG. 17). The point at which 50% cell death was achieved was using 1 microgram per ml of cisplatin plus 0.5 micromolar of SpA4-anti-hTR; whereas in the absence of SpA4-anti-hTR, >10 micrograms per ml of cisplatin were required to achieve 50% cell death (FIG. 17). […] Furthermore, we determined the effect of combining 2-5A-anti-hTR with cisplatin on U373-MG cells in vitro and in vivo. […] The IC50 of cisplatin was reduced from 10.0 to 1.0 μg/ml by combination of spA4-anti-hTR.

[3] = U373, 0.5 micromolar daily plus lipofectamine, 3 days

Sp5′A2′p(5′A2p)3-[(Bu)p]2-5′GCG CGG GGA GCA AAA GCA C3′-3′T5′ (antisense GCGCGGGGAGCAAAAGCAC; 5'-thiophosphate 2-5A tetramer, butanediol linkers, 3'-3'T cap, chemistry not fully specified) [spA4-anti-hTR, 2-5A tetramer linked by butanediol linkers to 19-mer antisense against human telomerase RNA nucleotides 76 to 94]
reduction in cell viability [1]: less than 5% | reduction in cell viability ([1]; listed as SpA4-anti-hTR): 2-3% | apoptotic cell death by TUNEL (in words) (U251-MG cells): increased number of darkly staining nuclei | increase in the anti-tumor cell effect by use of lipofectamine (U373 cells; 0.5 micromolar once a day with lipofectamine versus without): about 10 fold | effect on growth/viability (in words) (U373 cells; [3]): specifically suppressed growth | reduction in viability (U373 cells; [3]): about 60% | cell viability reduced to (U373 cells; U373, 0.5 micromolar daily plus lipofectamine, 7 days, two separate cultures): < 2% | reduction in viability (U373 cells; U373, 0.5 micromolar daily plus lipofectamine, 8 days): 90% | reduction of the dose required to block proliferation and survival of tumor cells using lipofectamine (U373 cells; with lipofectamine versus without): 10 fold | apoptotic cells observed in tumors (TUNEL) (U251-MG tumors): many apoptotic cells | survival of mice ([2]; 9 weeks after inoculation of tumor cells, 3 nmol plus Lipofectamine intracranially on Days 21, 23, 25): 50% | mice survived ([2]; at 62 days post-tumor implantation): 50% | survival of mice (in words) ([2]; intracranial injection): Enhanced survival | susceptibility of U373-MG cells to cisplatin (in words) (U373-MG cells): increased the susceptibility

Source: US6468983B2, “RNase L activators and antisense oligonucleotides effective to treat telomerase-expressing malignancies” (The Cleveland Clinic Foundation, priority 1997, dated 2002)
